Measurements: ChEMBL document CHEMBL1201862, “PubChem BioAssay data set” (2004)
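The compound was tested at five concentrations on cells cultured in 96-well plates, with a 48-hour exposure period. At the GI50, growth is halved.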 Calls of active or inactive are those of the source. No stated cut-off is given here; in the data, active = GI50 up to about 1.1 µM and inactive = higher.

Legend:
Assay in all cases: inhibition of tumour cell growth, NCI panel, 48 h
A549 = tested on: A549
CAKI-1 = tested on: CAKI-1
HCC 2998 = tested on: HCC 2998
HOP-92 = tested on: HOP-92
IGROV-1 = tested on: IGROV-1
M14 = tested on: M14
Malme-3M = tested on: Malme-3M
NCI-H522 = tested on: NCI-H522
OVCAR-4 = tested on: OVCAR-4
SF-295 = tested on: SF-295
SK-MEL-28 = tested on: SK-MEL-28
SK-OV-3 = tested on: SK-OV-3
SR = tested on: SR
SW-620 = tested on: SW-620
TK-10 = tested on: TK-10
U-251 = tested on: U-251
HCT-15 = tested on: HCT-15
MDA-MB-231 = tested on: MDA-MB-231
PC-3 = tested on: PC-3
MDA-N = tested on: MDA-N

Row | Compound | GI50 (A549) | GI50 (CAKI-1) | GI50 (HCC 2998) | GI50 (HOP-92) | GI50 (IGROV-1) | GI50 (M14) | GI50 (Malme-3M) | GI50 (NCI-H522) | GI50 (OVCAR-4) | GI50 (SF-295) | GI50 (SK-MEL-28) | GI50 (SK-OV-3) | GI50 (SR) | GI50 (SW-620) | GI50 (TK-10) | GI50 (U-251) | GI50 (HCT-15) | GI50 (MDA-MB-231) | GI50 (PC-3) | GI50 (MDA-N)
1 | CCOC(=O)NN(C(=O)OCC)C(C(=O)c1ccc(Cl)cc1)=C1NCCN1 | > 100 µM (inactive) | > 100 µM (inactive) | > 100 µM (inactive) | > 100 µM (inactive) | > 100 µM (inactive) | > 100 µM (inactive) | > 100 µM (inactive) | > 100 µM (inactive) | > 100 µM (inactive) | > 100 µM (inactive) | > 100 µM (inactive) | > 100 µM (inactive) | > 100 µM (inactive) | > 100 µM (inactive) | > 100 µM (inactive) | > 100 µM (inactive) | – | – | – | –
2 | CO[C@@]12C[C@H](CNC(=O)c3ccc[nH]3)O[C@@H]1NC(=O)N2 | > 100 µM (inactive) | > 100 µM (inactive) | > 100 µM (inactive) | > 100 µM (inactive) | > 100 µM (inactive) | > 100 µM (inactive) | > 100 µM (inactive) | > 100 µM (inactive) | > 100 µM (inactive) | > 100 µM (inactive) | > 100 µM (inactive) | > 100 µM (inactive) | > 100 µM (inactive) | > 100 µM (inactive) | > 100 µM (inactive) | > 100 µM (inactive) | > 100 µM | > 100 µM (inactive) | > 100 µM (inactive) | –
3 | CCN(CC)CCn1nc(N)c2nc3ccccc3nc21 | > 100 µM (inactive) | 72.6 µM (inactive) | > 100 µM (inactive) | > 100 µM (inactive) | > 100 µM (inactive) | > 100 µM (inactive) | > 100 µM (inactive) | 96.4 µM (inactive) | > 100 µM (inactive) | > 100 µM (inactive) | > 100 µM (inactive) | > 100 µM (inactive) | 59.8 µM (inactive) | 93.5 µM (inactive) | > 100 µM (inactive) | > 100 µM (inactive) | > 100 µM | – | > 100 µM (inactive) | > 100 µM (inactive)
4 | Cc1cn2c(/C=N/NC(=N)N)c(-c3cccc([N+](=O)[O-])c3)nc2s1 | 1.95 µM (inactive) | 2.42 µM (inactive) | 0.839 µM (active) | 1.64 µM (inactive) | 5.56 µM (inactive) | 1.85 µM (inactive) | 1.96 µM (inactive) | 2.08 µM (inactive) | 0.153 µM (active) | 1.81 µM (inactive) | 1.29 µM (inactive) | – | 1.77 µM (inactive) | 0.661 µM (active) | 2.21 µM (inactive) | 1.6 µM (inactive) | 4.41 µM | 1.41 µM (inactive) | 1.74 µM (inactive) | –
5 | CCCCCCCCCC(=O)CC(=O)c1ccc(O)cc1O | 31.3 µM (inactive) | 23.7 µM (inactive) | 21.3 µM (inactive) | 27.7 µM (inactive) | 31.5 µM (inactive) | 22.1 µM (inactive) | 52.6 µM (inactive) | 18.6 µM (inactive) | 42.1 µM (inactive) | 25.6 µM (inactive) | 39.8 µM (inactive) | > 100 µM (inactive) | 15.8 µM (inactive) | 36.5 µM (inactive) | 40.8 µM (inactive) | 26.9 µM (inactive) | 30.2 µM | – | – | –
6 | Cc1cc2c(cc1Cl)SC(c1ccccc1O)NS2(=O)=O (stereo unspecified) | > 100 µM (inactive) | 50.6 µM (inactive) | 31 µM (inactive) | 54.1 µM (inactive) | 42.4 µM (inactive) | 57 µM (inactive) | 24.4 µM (inactive) | 48.9 µM (inactive) | 63.7 µM (inactive) | > 100 µM (inactive) | 49.4 µM (inactive) | > 100 µM (inactive) | 16.4 µM (inactive) | 19.2 µM (inactive) | > 100 µM (inactive) | 72.9 µM (inactive) | 19.4 µM | 32.4 µM (inactive) | 68.5 µM (inactive) | –
7 | O=[N+]([O-])c1ccc(SN=S=NSc2cccc(SN=S=NSc3ccc([N+](=O)[O-])cc3)c2)cc1 | 46.5 µM (inactive) | 19 µM (inactive) | > 100 µM (inactive) | > 100 µM (inactive) | 39.8 µM (inactive) | 37 µM (inactive) | 28.1 µM (inactive) | 15.8 µM (inactive) | 36.7 µM (inactive) | 44.3 µM (inactive) | 35.7 µM (inactive) | > 100 µM (inactive) | 26.8 µM (inactive) | 20.4 µM (inactive) | – | 16.4 µM (inactive) | 17.7 µM | – | 16.6 µM (inactive) | 30.8 µM (inactive)
8 | Clc1ccc(/C=c2\nc(-c3ccccc3)n3c2nc2ccccc23)cc1 | > 100 µM (inactive) | 51.4 µM (inactive) | – | > 100 µM (inactive) | > 100 µM (inactive) | > 100 µM (inactive) | > 100 µM (inactive) | – | 56.4 µM (inactive) | 25.5 µM (inactive) | 0.0465 µM (active) | 43.3 µM (inactive) | > 100 µM (inactive) | > 100 µM (inactive) | > 100 µM (inactive) | 49.1 µM (inactive) | > 100 µM | 61.5 µM (inactive) | 19.1 µM (inactive) | –
9 | Nc1nc(N)c(-c2ccccc2)c(CCC(=O)Nc2ccc(Cl)cc2)n1 | > 100 µM (inactive) | > 100 µM (inactive) | > 100 µM (inactive) | > 100 µM (inactive) | > 100 µM (inactive) | > 100 µM (inactive) | > 100 µM (inactive) | > 100 µM (inactive) | > 100 µM (inactive) | > 100 µM (inactive) | > 100 µM (inactive) | > 100 µM (inactive) | > 100 µM (inactive) | > 100 µM (inactive) | > 100 µM (inactive) | > 100 µM (inactive) | > 100 µM | – | – | –
10 | Cc1ccc(C)n2c1nc1ccc3ccccc3c12 | > 100 µM (inactive) | – | > 100 µM (inactive) | 40.6 µM (inactive) | > 100 µM (inactive) | > 100 µM (inactive) | > 100 µM (inactive) | – | – | > 100 µM (inactive) | > 100 µM (inactive) | > 100 µM (inactive) | > 100 µM (inactive) | > 100 µM (inactive) | > 100 µM (inactive) | > 100 µM (inactive) | > 100 µM | – | 67.9 µM (inactive) | > 100 µM (inactive)
11 | O=C1CN(c2ccc(Cl)cc2)C(=O)CN1CCN1CC(=O)N(c2ccc(Cl)cc2)CC1=O | > 100 µM (inactive) | > 100 µM (inactive) | > 100 µM (inactive) | > 100 µM (inactive) | > 100 µM (inactive) | > 100 µM (inactive) | > 100 µM (inactive) | > 100 µM (inactive) | > 100 µM (inactive) | > 100 µM (inactive) | > 100 µM (inactive) | > 100 µM (inactive) | > 100 µM (inactive) | > 100 µM (inactive) | > 100 µM (inactive) | > 100 µM (inactive) | > 100 µM | – | > 100 µM (inactive) | > 100 µM (inactive)
12 | CO/C(=N\N=C\c1ccc(OC)cc1OC)c1ccncc1 | > 10 µM (inactive) | – | > 10 µM (inactive) | – | > 10 µM (inactive) | – | > 10 µM (inactive) | – | – | > 10 µM (inactive) | > 10 µM (inactive) | > 10 µM (inactive) | > 10 µM (inactive) | > 10 µM (inactive) | > 10 µM (inactive) | > 10 µM (inactive) | > 10 µM | – | > 10 µM (inactive) | –
13 | CS/C(=N\Nc1cnc2ccccc2n1)NS(=O)(=O)c1cc(C)c(Cl)cc1Cl | > 100 µM (inactive) | 53.5 µM (inactive) | > 100 µM (inactive) | 15.5 µM (inactive) | 21.1 µM (inactive) | > 100 µM (inactive) | > 100 µM (inactive) | > 100 µM (inactive) | > 100 µM (inactive) | > 100 µM (inactive) | > 100 µM (inactive) | > 100 µM (inactive) | – | > 100 µM (inactive) | 82 µM (inactive) | > 100 µM (inactive) | > 100 µM | 44.2 µM (inactive) | > 100 µM (inactive) | –
14 | O=[As](O)(O)c1cc(/N=N/c2ccc(-c3ccc(/N=N/c4cc([As](=O)(O)O)c(O)cc4O)cc3)cc2)c(O)cc1O | > 100 µM (inactive) | > 79.6 µM (inactive) | > 100 µM (inactive) | > 100 µM (inactive) | > 100 µM (inactive) | > 53 µM (inactive) | > 69.2 µM (inactive) | > 100 µM (inactive) | > 42.9 µM (inactive) | > 100 µM (inactive) | > 100 µM (inactive) | > 100 µM (inactive) | > 100 µM (inactive) | > 100 µM (inactive) | > 100 µM (inactive) | > 100 µM (inactive) | 97.1 µM | – | – | –
15 | COc1cc2ccc3c4cc(OC)c(OC(C)C)cc4cnc3c2cc1OC | > 100 µM (inactive) | > 100 µM (inactive) | > 100 µM (inactive) | > 100 µM (inactive) | > 100 µM (inactive) | > 100 µM (inactive) | > 100 µM (inactive) | > 100 µM (inactive) | > 100 µM (inactive) | > 100 µM (inactive) | > 100 µM (inactive) | > 100 µM (inactive) | > 100 µM (inactive) | > 100 µM (inactive) | > 100 µM (inactive) | > 100 µM (inactive) | > 100 µM | – | – | –
16 | c1cn[nH]c1 [PYRAZOLE] | > 10 µM (inactive) | – | > 10 µM (inactive) | > 10 µM (inactive) | > 10 µM (inactive) | – | > 10 µM (inactive) | – | > 10 µM (inactive) | > 10 µM (inactive) | > 10 µM (inactive) | > 10 µM (inactive) | > 10 µM (inactive) | > 10 µM (inactive) | > 10 µM (inactive) | > 10 µM (inactive) | > 10 µM | – | > 10 µM (inactive) | > 10 µM (inactive)
